Reference: ChEMBL document CHEMBL1828590 (J Med Chem, 2011)

Columns and labels:
Histone deacetylase 9 = Histone deacetylase 9 (Homo sapiens, UniProt Q9UKV0)
[1] = target: T1, Polyamine deacetylase HDAC10 (Homo sapiens, UniProt Q969S8)
T1 sequence (Q969S8 whole entry): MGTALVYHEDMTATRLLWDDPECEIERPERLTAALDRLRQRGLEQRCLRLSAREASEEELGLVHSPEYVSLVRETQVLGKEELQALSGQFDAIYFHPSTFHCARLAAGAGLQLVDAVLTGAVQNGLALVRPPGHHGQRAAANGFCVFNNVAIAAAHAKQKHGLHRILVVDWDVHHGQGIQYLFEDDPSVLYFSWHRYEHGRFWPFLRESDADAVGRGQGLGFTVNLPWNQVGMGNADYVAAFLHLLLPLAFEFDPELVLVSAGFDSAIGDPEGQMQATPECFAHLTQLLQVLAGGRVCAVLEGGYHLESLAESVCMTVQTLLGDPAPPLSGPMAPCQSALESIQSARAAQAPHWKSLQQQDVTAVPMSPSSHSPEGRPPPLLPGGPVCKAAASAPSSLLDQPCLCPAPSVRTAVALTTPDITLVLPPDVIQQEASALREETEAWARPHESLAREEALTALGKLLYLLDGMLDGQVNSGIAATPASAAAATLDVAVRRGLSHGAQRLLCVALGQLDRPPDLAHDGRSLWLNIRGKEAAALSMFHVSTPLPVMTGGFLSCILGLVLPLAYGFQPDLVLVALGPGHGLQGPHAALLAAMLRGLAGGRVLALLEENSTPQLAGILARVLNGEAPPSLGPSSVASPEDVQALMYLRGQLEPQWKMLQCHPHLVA

Histone deacetylase 4 = Histone deacetylase 4 (Homo sapiens, UniProt P56524)
Chain of Histone deacetylase 4 (P56524 whole entry): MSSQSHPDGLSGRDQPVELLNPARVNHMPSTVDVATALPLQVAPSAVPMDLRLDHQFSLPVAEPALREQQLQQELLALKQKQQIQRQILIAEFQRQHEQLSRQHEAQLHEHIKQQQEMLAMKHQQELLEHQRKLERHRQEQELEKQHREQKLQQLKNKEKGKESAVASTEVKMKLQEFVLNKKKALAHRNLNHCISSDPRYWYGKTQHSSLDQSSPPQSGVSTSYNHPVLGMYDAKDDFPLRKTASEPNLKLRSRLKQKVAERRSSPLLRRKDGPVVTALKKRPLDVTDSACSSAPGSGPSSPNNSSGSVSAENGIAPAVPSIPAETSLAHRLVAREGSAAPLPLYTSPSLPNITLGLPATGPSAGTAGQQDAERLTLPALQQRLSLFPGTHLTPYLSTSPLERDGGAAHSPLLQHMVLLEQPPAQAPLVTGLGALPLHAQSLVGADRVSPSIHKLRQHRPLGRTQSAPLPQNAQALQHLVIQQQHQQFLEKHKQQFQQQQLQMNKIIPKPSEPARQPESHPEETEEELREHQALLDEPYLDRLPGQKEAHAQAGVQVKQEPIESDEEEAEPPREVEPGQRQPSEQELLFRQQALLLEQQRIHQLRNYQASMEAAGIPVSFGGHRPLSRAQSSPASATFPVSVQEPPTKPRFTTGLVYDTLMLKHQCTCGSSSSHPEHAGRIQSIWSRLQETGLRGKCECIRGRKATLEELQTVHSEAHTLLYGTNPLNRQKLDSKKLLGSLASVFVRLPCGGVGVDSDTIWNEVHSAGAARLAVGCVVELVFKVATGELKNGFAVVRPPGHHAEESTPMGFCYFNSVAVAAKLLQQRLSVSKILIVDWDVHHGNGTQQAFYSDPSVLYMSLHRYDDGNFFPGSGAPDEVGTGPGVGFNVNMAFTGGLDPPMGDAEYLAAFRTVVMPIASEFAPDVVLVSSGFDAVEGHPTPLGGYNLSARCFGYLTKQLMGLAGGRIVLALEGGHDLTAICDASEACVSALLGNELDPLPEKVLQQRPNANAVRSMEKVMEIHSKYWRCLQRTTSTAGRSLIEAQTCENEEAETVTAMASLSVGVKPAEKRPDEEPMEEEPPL

PC-3 = test: Antiproliferative activity against human PC3 cells after 96 hrs by celltiter 96 assay; type: functional, cell-based; details: PC-3, 96 h
Cytochrome P450 2D6 [2] = target: T2, Cytochrome P450 2D6 (Homo sapiens, UniProt P10635); test: Inhibition of recombinant CYP2D6 after 30 mins by fluorescence assay; type: ADME
T2 sequence (P10635 whole entry): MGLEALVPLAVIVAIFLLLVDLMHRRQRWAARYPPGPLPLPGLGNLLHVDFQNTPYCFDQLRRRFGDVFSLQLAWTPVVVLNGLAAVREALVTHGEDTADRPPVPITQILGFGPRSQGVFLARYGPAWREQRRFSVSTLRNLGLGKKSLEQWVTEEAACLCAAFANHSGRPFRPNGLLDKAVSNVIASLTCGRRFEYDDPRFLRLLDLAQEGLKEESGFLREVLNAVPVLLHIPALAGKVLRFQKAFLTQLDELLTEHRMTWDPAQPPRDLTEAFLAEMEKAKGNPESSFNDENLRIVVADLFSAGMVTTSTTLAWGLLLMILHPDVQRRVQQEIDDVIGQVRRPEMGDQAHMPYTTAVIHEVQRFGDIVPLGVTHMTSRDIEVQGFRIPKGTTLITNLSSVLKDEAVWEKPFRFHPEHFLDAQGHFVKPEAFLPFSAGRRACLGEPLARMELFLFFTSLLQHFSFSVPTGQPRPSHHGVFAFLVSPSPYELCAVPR

Cytochrome P450 2D6 [3] = target: T2, Cytochrome P450 2D6; test: Inhibition of CYP2D6 in human liver microsomes by fluorescence assay; type: ADME, Microsome
Histone deacetylase 11 = target: T3, Histone deacetylase 11 (Homo sapiens, UniProt Q96DB2)
T3 sequence (Q96DB2 whole entry): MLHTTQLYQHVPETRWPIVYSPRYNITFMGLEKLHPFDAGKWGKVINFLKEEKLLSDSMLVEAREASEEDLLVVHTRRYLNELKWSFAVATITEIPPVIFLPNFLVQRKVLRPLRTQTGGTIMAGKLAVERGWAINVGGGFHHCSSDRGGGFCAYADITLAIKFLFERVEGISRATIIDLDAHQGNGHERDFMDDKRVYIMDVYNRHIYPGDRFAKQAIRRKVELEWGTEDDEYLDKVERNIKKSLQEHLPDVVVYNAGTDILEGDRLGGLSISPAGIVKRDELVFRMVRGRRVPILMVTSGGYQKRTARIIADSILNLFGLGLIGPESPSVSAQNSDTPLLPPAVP

Histone deacetylase 2 = Histone deacetylase 2 (Homo sapiens, UniProt Q92769)
Chain of Histone deacetylase 2 (Q92769 whole entry): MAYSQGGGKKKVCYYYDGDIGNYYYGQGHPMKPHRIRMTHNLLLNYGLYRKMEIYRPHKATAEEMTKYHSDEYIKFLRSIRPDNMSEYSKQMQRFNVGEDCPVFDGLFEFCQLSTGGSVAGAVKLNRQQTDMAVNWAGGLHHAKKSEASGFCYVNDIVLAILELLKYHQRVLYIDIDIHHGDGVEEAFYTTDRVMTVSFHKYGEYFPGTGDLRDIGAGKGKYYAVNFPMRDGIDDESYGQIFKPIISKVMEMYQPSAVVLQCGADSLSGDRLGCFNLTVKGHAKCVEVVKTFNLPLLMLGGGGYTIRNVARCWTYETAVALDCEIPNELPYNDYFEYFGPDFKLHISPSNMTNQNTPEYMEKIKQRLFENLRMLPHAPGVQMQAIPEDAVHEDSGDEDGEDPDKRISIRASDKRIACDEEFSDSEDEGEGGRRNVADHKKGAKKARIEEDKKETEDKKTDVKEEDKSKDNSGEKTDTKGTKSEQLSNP

Cytochrome P450 2C9 = Cytochrome P450 2C9 (Homo sapiens, UniProt P11712); test: Inhibition of CYP2C9 in human liver microsomes by fluorescence assay; type: ADME, Microsome
Chain of Cytochrome P450 2C9 (P11712 whole entry): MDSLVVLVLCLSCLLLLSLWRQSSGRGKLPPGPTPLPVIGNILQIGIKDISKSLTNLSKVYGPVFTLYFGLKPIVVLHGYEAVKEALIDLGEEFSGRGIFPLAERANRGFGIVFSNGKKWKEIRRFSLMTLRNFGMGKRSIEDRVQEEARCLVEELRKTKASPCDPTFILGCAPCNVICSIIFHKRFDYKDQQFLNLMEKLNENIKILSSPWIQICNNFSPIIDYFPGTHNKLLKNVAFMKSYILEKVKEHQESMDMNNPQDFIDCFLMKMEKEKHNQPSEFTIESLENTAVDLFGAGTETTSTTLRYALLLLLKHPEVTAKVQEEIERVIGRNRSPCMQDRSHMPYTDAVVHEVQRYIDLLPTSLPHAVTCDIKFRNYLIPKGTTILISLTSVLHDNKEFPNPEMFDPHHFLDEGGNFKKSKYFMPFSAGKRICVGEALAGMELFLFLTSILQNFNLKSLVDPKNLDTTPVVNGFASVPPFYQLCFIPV

HCT-116 = test: Antiproliferative activity against human HCT116 cells after 96 hrs by celltiter 96 assay; type: functional, cell-based; details: HCT-116, 96 h
COLO 205 = test: Antiproliferative activity against human COLO205 cells after 96 hrs by celltiter 96 assay; type: functional, cell-based; details: COLO 205, 96 h
Histone deacetylase 1 = Histone deacetylase 1 (Homo sapiens, UniProt Q13547)
Chain of Histone deacetylase 1 (Q13547 whole entry): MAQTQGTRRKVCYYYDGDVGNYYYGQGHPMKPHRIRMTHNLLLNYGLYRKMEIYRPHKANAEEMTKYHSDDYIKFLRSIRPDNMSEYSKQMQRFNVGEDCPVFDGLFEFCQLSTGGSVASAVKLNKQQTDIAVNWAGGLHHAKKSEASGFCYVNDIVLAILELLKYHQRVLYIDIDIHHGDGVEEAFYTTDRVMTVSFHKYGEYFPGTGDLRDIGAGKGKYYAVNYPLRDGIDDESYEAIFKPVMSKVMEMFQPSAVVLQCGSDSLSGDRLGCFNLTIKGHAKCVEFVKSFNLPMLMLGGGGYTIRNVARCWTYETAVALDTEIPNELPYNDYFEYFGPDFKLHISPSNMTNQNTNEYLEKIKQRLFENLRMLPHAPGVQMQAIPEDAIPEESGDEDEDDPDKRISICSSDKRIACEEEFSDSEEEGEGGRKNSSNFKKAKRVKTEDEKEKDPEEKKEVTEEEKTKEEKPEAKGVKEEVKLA

CYP1A = target: T4, CYP1A (Homo sapiens, UniProt P04798+P05177); test: Inhibition of CYP1A in human liver microsomes by fluorescence assay; type: ADME, Microsome
T4 sequence (P04798 whole entry): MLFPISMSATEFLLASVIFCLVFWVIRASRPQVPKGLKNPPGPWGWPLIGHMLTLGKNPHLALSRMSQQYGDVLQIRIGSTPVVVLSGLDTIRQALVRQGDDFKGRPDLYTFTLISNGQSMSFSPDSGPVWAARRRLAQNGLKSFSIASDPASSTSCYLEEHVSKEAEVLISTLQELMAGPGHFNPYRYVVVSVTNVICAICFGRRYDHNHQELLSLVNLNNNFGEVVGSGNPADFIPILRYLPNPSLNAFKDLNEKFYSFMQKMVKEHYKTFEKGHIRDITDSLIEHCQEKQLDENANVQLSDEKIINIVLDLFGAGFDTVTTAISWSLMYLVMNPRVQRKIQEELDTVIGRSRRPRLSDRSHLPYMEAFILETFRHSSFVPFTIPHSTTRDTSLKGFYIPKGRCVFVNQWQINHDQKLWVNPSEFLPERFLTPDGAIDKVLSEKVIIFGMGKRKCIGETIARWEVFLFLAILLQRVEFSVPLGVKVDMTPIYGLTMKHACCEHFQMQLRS
T4 sequence (P05177 whole entry): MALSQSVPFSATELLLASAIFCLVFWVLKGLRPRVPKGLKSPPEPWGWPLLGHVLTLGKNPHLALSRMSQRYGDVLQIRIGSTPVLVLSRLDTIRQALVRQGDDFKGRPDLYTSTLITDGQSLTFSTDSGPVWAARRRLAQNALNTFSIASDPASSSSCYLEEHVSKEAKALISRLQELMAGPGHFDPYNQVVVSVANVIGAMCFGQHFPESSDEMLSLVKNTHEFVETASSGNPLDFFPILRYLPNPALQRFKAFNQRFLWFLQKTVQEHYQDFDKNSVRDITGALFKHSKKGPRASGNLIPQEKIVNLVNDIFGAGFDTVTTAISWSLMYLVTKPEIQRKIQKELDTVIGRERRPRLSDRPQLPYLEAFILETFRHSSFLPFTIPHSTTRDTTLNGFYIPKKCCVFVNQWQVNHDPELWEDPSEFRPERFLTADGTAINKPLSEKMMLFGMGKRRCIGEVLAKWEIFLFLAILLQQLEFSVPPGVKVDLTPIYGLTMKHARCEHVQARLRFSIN

A2780 = test: Antiproliferative activity against human A2780 cells after 96 hrs by celltiter 96 assay; type: functional, cell-based; details: A2780, 96 h

Chain of Histone deacetylase 9 (Q9UKV0 whole entry): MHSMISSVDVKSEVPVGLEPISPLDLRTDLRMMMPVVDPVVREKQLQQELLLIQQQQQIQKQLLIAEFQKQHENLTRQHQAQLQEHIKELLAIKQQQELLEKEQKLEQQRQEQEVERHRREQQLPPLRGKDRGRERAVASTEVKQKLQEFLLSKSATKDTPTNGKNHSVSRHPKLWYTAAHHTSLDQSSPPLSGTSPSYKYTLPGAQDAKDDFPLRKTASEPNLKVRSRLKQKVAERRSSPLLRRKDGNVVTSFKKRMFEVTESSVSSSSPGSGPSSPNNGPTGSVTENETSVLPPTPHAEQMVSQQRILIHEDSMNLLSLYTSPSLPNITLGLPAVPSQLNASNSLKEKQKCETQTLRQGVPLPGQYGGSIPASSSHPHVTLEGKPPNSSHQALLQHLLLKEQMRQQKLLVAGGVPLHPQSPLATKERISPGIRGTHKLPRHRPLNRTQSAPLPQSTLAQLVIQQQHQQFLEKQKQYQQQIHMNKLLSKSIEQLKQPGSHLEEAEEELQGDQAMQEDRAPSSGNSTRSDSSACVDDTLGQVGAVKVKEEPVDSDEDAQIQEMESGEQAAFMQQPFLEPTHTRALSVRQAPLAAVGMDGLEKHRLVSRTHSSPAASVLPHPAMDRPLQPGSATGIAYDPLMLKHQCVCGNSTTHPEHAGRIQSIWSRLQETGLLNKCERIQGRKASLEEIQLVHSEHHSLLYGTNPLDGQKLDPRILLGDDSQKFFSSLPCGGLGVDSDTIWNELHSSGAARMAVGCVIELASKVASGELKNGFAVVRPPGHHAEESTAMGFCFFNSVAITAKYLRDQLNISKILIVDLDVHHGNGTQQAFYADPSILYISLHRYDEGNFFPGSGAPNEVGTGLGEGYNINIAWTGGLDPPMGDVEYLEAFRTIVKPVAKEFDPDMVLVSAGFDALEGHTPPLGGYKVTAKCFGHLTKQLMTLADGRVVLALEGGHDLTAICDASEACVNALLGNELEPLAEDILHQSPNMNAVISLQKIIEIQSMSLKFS

With CCCCc1nc2cc(/C=C/C(=O)NO)ccc2n1CCN(CC)CC.Cl.Cl the Ki (Histone deacetylase 9) was 24 nM, the Ki [1] was 23 nM and the Ki (Histone deacetylase 4) was 16 nM. For the same molecule, the IC50 (PC-3) was 340 nM, the IC50 (Cytochrome P450 2D6 [2]) was over 10000 nM and the IC50 (Cytochrome P450 2D6 [3]) was over 25000 nM. For the same molecule, the Ki (Histone deacetylase 11) was 24 nM, the Ki (Histone deacetylase 2) was 27 nM and the IC50 (Cytochrome P450 2C9) was over 25000 nM. It also gave an IC50 (HCT-116) of 480 nM, an IC50 (COLO 205) of 560 nM and a Ki (Histone deacetylase 1) of […]. For the same molecule, the IC50 (CYP1A) was over 25000 nM and the IC50 (A2780) was 480 nM.
With CN(C)CC(C)(C)Cn1c(CC(C)(C)C)nc2cc(/C=C/C(=O)NO)ccc21 the Ki (Histone deacetylase 9) was 11 nM, the Ki [1] was 34 nM and the Ki (Histone deacetylase 4) was 7.9 nM. For the same molecule, the IC50 (PC-3) was 500 nM, the IC50 (Cytochrome P450 2D6 [2]) was over 10000 nM and the IC50 (Cytochrome P450 2D6 [3]) was 13900 nM. For the same molecule, the Ki (Histone deacetylase 11) was 14 nM, the Ki (Histone deacetylase 2) was 26 nM and the IC50 (Cytochrome P450 2C9) was over 25000 nM. It also gave an IC50 (HCT-116) of 800 nM, an IC50 (COLO 205) of 570 nM and a Ki (Histone deacetylase 1) of 24 nM. For the same molecule, the IC50 (CYP1A) was over 25000 nM and the IC50 (A2780) was 440 nM.
Molecule CCCCCCc1nc2cc(/C=C/C(=O)NO)ccc2n1CCN(C)C has a Ki (Histone deacetylase 9) of 11 nM, a Ki [1] of 13 nM and a Ki (Histone deacetylase 4) of 5.3 nM. It also gave an IC50 (PC-3) of 250 nM, an IC50 (Cytochrome P450 2D6 [2]) of 3170 nM and an IC50 (Cytochrome P450 2D6 [3]) of over 25000 nM. It also gave a Ki (Histone deacetylase 11) of 11 nM, a Ki (Histone deacetylase 2) of 21 nM and an IC50 (Cytochrome P450 2C9) of 10400 nM. For the same molecule, the IC50 (HCT-116) was 330 nM, the IC50 (COLO 205) was 330 nM and the Ki (Histone deacetylase 1) was 19 nM. For the same molecule, the IC50 (CYP1A) was over 25000 nM and the IC50 (A2780) was 230 nM.
